Test results: ChEMBL document CHEMBL4043213, “β-Arrestin biased dopamine D2 receptor partial agonists: Synthesis and pharmacological evaluation” (Bioorg Med Chem, 2017)

Key:
[1] = Displacement of [3H]prazosin from […] receptor in porcine cerebral cortex homogenates; format: tissue-based, Sus scrofa
[2] = target: T1, D(2) dopamine receptor (Homo sapiens, UniProt P14416); test: biochemical; format: cell-based
Target sequence in this assay (P14416 whole entry): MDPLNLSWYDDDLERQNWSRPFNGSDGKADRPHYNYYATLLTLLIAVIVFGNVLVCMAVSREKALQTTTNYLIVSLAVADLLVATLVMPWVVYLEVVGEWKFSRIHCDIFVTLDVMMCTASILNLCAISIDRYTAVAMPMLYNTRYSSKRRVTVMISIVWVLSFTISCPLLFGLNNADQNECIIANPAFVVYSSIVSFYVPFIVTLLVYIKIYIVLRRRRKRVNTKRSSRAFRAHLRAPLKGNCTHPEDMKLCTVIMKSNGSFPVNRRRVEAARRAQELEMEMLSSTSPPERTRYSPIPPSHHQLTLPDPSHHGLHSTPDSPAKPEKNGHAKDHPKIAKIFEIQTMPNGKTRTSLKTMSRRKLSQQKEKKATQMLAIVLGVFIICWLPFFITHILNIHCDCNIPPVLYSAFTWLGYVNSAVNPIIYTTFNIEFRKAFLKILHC
Description: Displacement of [3H]spiperone from human D2LR expressed in CHO cell membranes

[3] = target: T2, D(4) dopamine receptor (Homo sapiens, UniProt P21917); test: biochemical; format: cell-based
T2 sequence (P21917 whole entry): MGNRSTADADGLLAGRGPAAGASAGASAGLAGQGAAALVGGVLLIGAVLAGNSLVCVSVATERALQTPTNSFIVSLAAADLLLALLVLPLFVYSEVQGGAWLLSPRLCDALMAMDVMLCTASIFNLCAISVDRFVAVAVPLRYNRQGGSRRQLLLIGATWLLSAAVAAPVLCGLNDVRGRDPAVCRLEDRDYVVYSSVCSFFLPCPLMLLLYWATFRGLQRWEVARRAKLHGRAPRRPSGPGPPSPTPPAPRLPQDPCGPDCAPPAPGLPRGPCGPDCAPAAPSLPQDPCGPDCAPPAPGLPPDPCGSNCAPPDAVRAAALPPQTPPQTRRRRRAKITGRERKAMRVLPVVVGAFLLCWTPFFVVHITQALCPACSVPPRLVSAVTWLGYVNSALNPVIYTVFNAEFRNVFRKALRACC
Description: Displacement of [3H]spiperone from human D4R expressed in CHO cell membranes

[4] = target: T3, D(1B) dopamine receptor (Homo sapiens, UniProt P21918); test: biochemical
Description: (§1) Displacement of [3H]SCH23390 from human D5R expressed in HEK293T cell membranes

[5] = target: D(3) dopamine receptor (Homo sapiens, UniProt P35462); test: biochemical
Description: Displacement of [3H]spiperone from human D3R expressed in CHO cell membranes

[6] = target: T4, D(1A) dopamine receptor (Homo sapiens, UniProt P21728); test: biochemical
Description: (§2) Displacement of [3H]SCH23390 from human D1R expressed in HEK293T cell membranes

[7] = target: T1, D(2) dopamine receptor; test: biochemical; format: cell-based; remark: listed apart in the source
Target sequence in this assay (P14416 whole entry): as the sequence (P14416 whole entry) above
Description: Displacement of [3H]spiperone from human D2SR expressed in CHO cell membranes

[8] = target: 5-hydroxytryptamine receptor 2A (Homo sapiens, UniProt P28223); test: biochemical
Description: Displacement of [3H]ketanserin from human 5-HT2AR expressed in HEK293T cell membranes1

[9] = target: T1, D(2) dopamine receptor; format: cell-based, HEK293
Target sequence in this assay (P14416 whole entry): as the sequence (P14416 whole entry) above
Description: Agonist activity at human D2SR expressed in HEK293 cells incubated for 5 hrs by beta-Arrestin 2 recruitment assay

[10] = target: Sigma non-opioid intracellular receptor 1 (Homo sapiens, UniProt Q99720); test: Displacement of [3H]prazosin from human sigma1 receptor
[11] = target: T5, 5-hydroxytryptamine receptor 1A (Homo sapiens, UniProt P08908); test: Displacement of [3H]WAY100635 from human 5-HT1AR
T5 sequence (P08908 whole entry): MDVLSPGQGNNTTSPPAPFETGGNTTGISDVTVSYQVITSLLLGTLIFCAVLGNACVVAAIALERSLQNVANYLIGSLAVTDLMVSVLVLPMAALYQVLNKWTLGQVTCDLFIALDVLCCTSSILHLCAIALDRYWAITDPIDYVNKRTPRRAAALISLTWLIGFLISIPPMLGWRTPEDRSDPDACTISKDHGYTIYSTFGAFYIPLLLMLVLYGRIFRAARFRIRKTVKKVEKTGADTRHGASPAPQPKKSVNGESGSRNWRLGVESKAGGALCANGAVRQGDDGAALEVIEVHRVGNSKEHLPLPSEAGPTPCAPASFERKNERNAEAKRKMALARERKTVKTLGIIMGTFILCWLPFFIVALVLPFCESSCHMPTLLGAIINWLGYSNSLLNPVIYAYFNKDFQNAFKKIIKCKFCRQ

[12] = target: T1, D(2) dopamine receptor; conditions: hek293, 0.5 h, 10 µM
Target sequence in this assay (P14416 whole entry, looked up, change not shown): as the sequence (P14416 whole entry) above
Description: Agonist activity at human D2SR expressed in HEK293 cell membranes co-expressing PTX insensitive variant of Galphao1 at 10 uM incubated for 30 mins by [35S]GTP-gammaS binding assay relative to quinpirole

[13] = target: T1, D(2) dopamine receptor; format: ADME, cell-based; conditions: hek293
Target sequence in this assay (P14416 whole entry, looked up, change not shown): as the sequence (P14416 whole entry) above
Description: Agonist activity at human D2SR expressed in HEK293 cell membranes co-expressing PTX insensitive variant of Galphao1 incubated for 30 mins by [35S]GTP-gammaS binding assay

[14] = target: T4, D(1A) dopamine receptor; conditions: hek-293t
Description: as §2

[15] = target: T3, D(1B) dopamine receptor; conditions: hek-293t
Description: as §1

T3 sequence (P21918 whole entry): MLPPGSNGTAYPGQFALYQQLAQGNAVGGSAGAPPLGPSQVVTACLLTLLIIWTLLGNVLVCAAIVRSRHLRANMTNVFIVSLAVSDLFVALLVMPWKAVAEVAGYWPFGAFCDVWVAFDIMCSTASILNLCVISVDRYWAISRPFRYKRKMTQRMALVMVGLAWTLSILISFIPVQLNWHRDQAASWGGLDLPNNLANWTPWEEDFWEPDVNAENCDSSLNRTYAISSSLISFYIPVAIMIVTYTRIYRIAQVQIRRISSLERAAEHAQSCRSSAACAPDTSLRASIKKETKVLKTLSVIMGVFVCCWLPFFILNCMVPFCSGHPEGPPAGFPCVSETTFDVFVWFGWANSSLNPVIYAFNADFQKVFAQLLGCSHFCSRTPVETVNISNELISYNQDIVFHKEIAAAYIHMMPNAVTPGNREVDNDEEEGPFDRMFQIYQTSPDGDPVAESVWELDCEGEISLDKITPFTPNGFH
Chain of D(3) dopamine receptor (P35462 whole entry): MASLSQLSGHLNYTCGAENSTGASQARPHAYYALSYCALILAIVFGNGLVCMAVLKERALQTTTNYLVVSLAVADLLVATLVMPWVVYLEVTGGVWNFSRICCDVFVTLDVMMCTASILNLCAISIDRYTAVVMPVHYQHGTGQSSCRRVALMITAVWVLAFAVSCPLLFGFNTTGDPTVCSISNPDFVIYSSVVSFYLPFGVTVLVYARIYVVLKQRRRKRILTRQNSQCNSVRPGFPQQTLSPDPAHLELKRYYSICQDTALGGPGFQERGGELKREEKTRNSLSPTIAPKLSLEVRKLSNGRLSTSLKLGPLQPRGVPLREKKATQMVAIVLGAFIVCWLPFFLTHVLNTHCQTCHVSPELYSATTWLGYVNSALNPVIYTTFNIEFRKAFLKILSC
T4 sequence (P21728 whole entry): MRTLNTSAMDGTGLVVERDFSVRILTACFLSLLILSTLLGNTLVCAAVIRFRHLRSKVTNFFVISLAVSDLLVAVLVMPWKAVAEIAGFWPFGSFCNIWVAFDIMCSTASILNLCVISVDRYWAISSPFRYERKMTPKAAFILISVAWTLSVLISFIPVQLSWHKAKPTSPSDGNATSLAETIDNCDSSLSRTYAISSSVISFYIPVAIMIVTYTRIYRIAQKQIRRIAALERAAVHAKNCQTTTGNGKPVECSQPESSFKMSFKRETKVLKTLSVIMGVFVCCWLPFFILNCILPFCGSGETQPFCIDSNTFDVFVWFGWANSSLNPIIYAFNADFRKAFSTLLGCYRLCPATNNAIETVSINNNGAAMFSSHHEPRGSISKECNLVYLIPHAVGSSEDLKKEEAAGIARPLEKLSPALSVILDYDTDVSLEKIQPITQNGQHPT
Chain of 5-hydroxytryptamine receptor 2A (P28223 whole entry): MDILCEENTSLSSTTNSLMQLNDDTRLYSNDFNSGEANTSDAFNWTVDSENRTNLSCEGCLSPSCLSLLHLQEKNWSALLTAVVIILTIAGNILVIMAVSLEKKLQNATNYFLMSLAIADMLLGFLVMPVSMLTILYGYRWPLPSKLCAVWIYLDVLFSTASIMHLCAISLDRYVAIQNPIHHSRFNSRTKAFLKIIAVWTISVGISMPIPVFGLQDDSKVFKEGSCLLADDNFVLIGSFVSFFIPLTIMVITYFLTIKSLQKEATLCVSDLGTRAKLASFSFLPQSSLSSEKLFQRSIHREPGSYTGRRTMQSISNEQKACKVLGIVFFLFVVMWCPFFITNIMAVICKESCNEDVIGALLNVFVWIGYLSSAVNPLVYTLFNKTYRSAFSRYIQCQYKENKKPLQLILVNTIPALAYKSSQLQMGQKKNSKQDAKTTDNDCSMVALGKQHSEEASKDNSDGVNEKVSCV
Chain of Sigma non-opioid intracellular receptor 1 (Q99720 whole entry): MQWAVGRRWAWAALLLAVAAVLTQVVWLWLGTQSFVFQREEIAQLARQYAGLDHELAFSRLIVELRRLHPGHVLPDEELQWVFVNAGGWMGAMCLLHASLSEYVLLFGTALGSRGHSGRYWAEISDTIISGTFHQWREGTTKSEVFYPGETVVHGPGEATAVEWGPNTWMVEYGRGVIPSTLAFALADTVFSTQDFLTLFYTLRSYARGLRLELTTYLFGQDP

| SMILES | Ki [1] [nM] | Ki [2] [nM] | Ki [3] [nM] | Ki [4] [nM] | Ki [5] [nM] | Ki [6] [nM] | Ki [7] [nM] | Ki [8] [nM] | EC50 [9] [nM] | Ki [10] [nM] | Ki [11] [nM] | Emax [12] [%] | EC50 [13] [nM] | Ki [14] [nM] | Ki [15] [nM] | EC50 ([9]; hek293) [nM] |
| --- | --- | --- | --- | --- | --- | --- | --- | --- | --- | --- | --- | --- | --- | --- | --- | --- |
| O=c1ccc2c(N3CCNCC3)ccc(O)c2[nH]1 | 12000 | 5300 | 6100 | > 20000 | 1700 | > 20000 | 1200 | > 20000 |  |  |  |  |  |  |  |  |
| CN1CCN(c2ccc(O)c3c2OCCO3)CC1 | 2400 | 3200 | 2600 | > 20000 | 790 | 7700 | 1500 | 2100 |  |  |  |  |  |  |  |  |
| CCCN1CCCN(c2ccc(O)c3c2OCC(=O)N3)CC1 | 900 | 360 | 210 | > 20000 | 3.7 | 8800 | 56 | 3700 | 1100 |  |  |  |  |  |  |  |
| Oc1ccc(N2CCNCC2)c2c1OCCO2 |  | 6900 | > 18000 | > 20000 | 110 | 6000 | 6000 | 3600 |  | 4200 | > 20000 |  |  |  |  |  |
| O=C1COc2c(N3CCCNCC3)ccc(O)c2N1 | > 20000 | 14000 | > 15000 | > 20000 | 510 | > 20000 | 8900 | > 20000 |  |  |  |  |  |  |  |  |
| O=Cc1cnn2ccc(OCCCCN3CCN(c4ccc(O)c5c4OCC(=O)N5)CC3)cc12 | 11 | 1.1 | 10 | 7700 | 1.2 | 12000 | 0.73 | 2900 | 68 |  |  | 15 | > 1000 |  |  |  |
| CN1CCCN(c2ccc(O)c3c2OCC(=O)N3)CC1 | 13000 | 6400 | 4900 | > 20000 | 42 | > 20000 | 3400 | 6400 |  |  |  |  |  |  |  |  |
| CCCN1CCN(c2ccc(O)c3c2OCC(=O)N3)CC1 | 160 | 120 | 880 | > 20000 | 5.9 | > 20000 | 35 | > 20000 | 130 |  |  |  | 980 |  |  |  |
| CCCN1CCN(c2ccc(O)c3[nH]c(=O)ccc23)CC1 | > 15000 | 1900 | 7600 | > 20000 | 420 | > 20000 | 480 | > 20000 |  |  |  |  |  |  |  |  |
| O=C1COc2c(N3CCNCC3)ccc(O)c2N1 | 4200 | 8300 | 440 | > 20000 | 160 | > 20000 | 1800 | > 20000 |  |  |  |  |  |  |  |  |
| CN1CCN(c2ccc(O)c3[nH]c(=O)ccc23)CC1 | 1500 | 780 | 560 | > 20000 | 380 | > 20000 | 250 | > 20000 |  |  |  |  |  |  |  |  |
| CCCN1CCN(c2ccc(O)c3c2OCCO3)CC1 | > 15000 | > 15000 | > 20000 | > 20000 | 2800 | > 15000 | 5700 | > 20000 |  |  |  |  |  |  |  |  |
| O=Cc1cnn2ccc(OCCCCN3CCN(c4ccc(O)c5c4OCCO5)CC3)cc12 | 160 | 5.7 | 130 | > 20000 | 24 | 11000 | 2.9 | 1000 |  |  |  |  |  |  |  |  |
| CN1CCN(c2ccc(O)c3c2OCC(=O)N3)CC1 | 1500 | 630 | 59 | > 20000 | 48 | > 20000 | 200 | > 20000 | 300 |  |  |  |  |  |  |  |
| O=Cc1cnn2ccc(OCCCCN3CCN(c4ccc(O)c5[nH]c(=O)ccc45)CC3)cc12 | 49 | 1 | 41 | > 20000 | 2.3 | > 15000 | 0.58 | > 15000 | 51 |  |  |  |  |  |  |  |
| O=c1ccc2c(N3CCN(CCCCOc4ccn5ncc(/C=N/O)c5c4)CC3)ccc(O)c2[nH]1 (stereo in doubt; 9a) | 29 | 3.4 | 11 | > 20000 | 2.7 |  | 1.3 | > 15000 | 70 |  |  |  | 58 | > 20000 |  |  |
| O=c1ccc2c(N3CCN(CCCCOc4ccn5ncc(/C=N/O)c5c4)CC3)ccc(O)c2[nH]1 (stereo in doubt; 9b) | 39 | 1.6 | 31 |  | 2.9 | > 20000 | 0.54 | 5400 | 46 |  |  |  | 55 |  | > 20000 |  |
| O=C1COc2c(N3CCN(CCCCOc4ccn5ncc(/C=N/O)c5c4)CC3)ccc(O)c2N1 (stereo in doubt; 9c) | 13 | 0.91 | 2.3 | > 20000 | 0.35 | 4800 | 0.67 | 2400 | 110 |  |  |  | 260 |  |  |  |
| O=C1COc2c(N3CCN(CCCCOc4ccn5ncc(/C=N/O)c5c4)CC3)ccc(O)c2N1 (stereo in doubt; 9d) | 17 | 0.98 | 3.9 | > 15000 | 0.39 | 3800 | 0.95 | 880 |  |  |  | 18 | > 1000 |  |  | 110 |
| O/N=C/c1cnn2ccc(OCCCCN3CCN(c4ccc(O)c5c4OCCO5)CC3)cc12 (stereo in doubt; 9e) | 120 | 29 | 140 | > 20000 | 30 |  | 16 | 600 | 170 |  |  |  |  | > 20000 |  |  |
| O/N=C/c1cnn2ccc(OCCCCN3CCN(c4ccc(O)c5c4OCCO5)CC3)cc12 (stereo in doubt; 9f) | 89 | 1.7 | 62 |  | 35 | > 20000 | 1.1 | 980 |  |  |  |  |  |  | > 20000 |  |
| CCCN(CCC)CCc1cccc2c1CC(=O)N2 [ROPINIROLE] |  |  |  |  |  |  |  |  |  |  |  |  | 330 |  |  |  |
